Reference: ChEMBL document CHEMBL1145207, “Discovery of novel quinoline-based estrogen receptor ligands using peptide interaction profiling” (J Med Chem, 2005)

Columns and labels:
[1] = biological target: T1, Estrogen receptor (Homo sapiens) (UniProt P03372)
T1 sequence (whole entry): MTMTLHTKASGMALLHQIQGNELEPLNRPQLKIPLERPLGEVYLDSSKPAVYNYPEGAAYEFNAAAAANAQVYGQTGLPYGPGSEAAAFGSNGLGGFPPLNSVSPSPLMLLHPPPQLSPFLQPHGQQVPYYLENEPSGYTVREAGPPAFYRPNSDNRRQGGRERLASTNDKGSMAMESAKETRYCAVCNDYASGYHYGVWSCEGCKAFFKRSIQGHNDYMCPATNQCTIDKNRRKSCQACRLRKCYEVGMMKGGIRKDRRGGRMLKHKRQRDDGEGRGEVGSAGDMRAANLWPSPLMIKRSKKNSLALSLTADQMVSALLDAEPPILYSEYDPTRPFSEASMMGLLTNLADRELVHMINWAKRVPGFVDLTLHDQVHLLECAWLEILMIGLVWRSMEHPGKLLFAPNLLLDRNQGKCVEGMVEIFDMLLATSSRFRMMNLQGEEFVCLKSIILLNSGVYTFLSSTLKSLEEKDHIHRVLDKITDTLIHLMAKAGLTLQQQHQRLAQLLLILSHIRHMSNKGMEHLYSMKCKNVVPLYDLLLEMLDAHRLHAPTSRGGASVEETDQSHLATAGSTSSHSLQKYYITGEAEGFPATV
Description: Mean fluorescence intensity corrected to basal for GW-5638 selective peptide binding to human estrogen receptor alpha

[2] = biological target: T2, Estrogen receptor beta (Homo sapiens, UniProt Q92731)
[3] = biological target: T3, Estrogen receptor (Homo sapiens, UniProt P03372)
T3 sequence (P03372 whole entry): T1 sequence (whole entry)
Description: Binding affinity for human estrogen receptor alpha

[4] = biological target: Estrogen receptor (Homo sapiens, UniProt Q92731+P03372); conditions: ishikawa
[5] = biological target: T2, Estrogen receptor beta; assay: Binding affinity for human estrogen receptor beta

T2 sequence (Q92731 whole entry): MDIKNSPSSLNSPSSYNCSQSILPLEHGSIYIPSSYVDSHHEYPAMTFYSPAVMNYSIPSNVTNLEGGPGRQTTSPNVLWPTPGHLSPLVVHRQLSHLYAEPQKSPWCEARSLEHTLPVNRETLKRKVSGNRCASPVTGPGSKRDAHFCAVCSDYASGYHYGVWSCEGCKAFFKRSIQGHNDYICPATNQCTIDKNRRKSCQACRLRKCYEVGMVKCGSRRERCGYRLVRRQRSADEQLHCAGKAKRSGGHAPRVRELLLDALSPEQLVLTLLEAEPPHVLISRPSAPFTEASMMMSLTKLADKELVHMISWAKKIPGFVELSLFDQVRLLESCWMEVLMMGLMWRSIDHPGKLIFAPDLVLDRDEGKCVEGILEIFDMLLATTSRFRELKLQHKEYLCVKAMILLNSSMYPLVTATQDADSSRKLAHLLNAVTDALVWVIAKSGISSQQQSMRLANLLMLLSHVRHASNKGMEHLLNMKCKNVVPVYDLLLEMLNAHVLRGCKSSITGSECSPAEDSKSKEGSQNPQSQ

Structure (SMILES)	MFI [1]	Ki [2]	Ki [3]	Log IC50 [4]	Ki [5]
CC/C(=C(\c1ccc(O)cc1)c1ccc(/C=C/C(=O)O)cc1)c1ccccc1	1320				
O=C(O)/C=C/c1ccc(Oc2c(-c3ccccc3)c(-c3ccccc3)nc3cc(O)ccc23)cc1		0.631 µM	3.16 µM	-5.6	
CCc1nc2cc(O)ccc2c(Oc2cccc(/C=C/C(=O)O)c2)c1-c1ccccc1			1.58 µM		1.58 µM
CCc1nc2cc(O)ccc2c(Oc2ccc(/C=C/C(=O)O)cc2)c1-c1ccccc1	1380				
CCc1nc2cc(O)ccc2c(Oc2ccc(/C=C/C(N)=O)cc2)c1-c1ccccc1	540	0.0251 µM	0.0158 µM	-7.1	
CCc1nc2cc(O)ccc2c(Oc2ccc(/C=C/C(=O)O)cc2)c1-c1cccc(C(F)(F)F)c1	1590	0.251 µM	0.1 µM	-8.1	
CCc1nc2cc(O)ccc2c(Oc2ccc(/C=C/C(=O)N(C)C)cc2)c1-c1ccccc1	350	0.02 µM	0.01 µM	-8.4	
CCc1nc2cc(O)ccc2c(Oc2ccc(OCCN(C)C)cc2)c1-c1ccccc1	0	0.01 µM	0.00794 µM	-8.5	
CCc1nc2cc(O)ccc2c(Oc2ccc(/C=C/C(=O)NC(C)C)cc2)c1-c1ccccc1	710	0.0158 µM	0.01 µM	-7.7	
CCc1nc2cc(O)ccc2c(Oc2ccc(/C=C/C(=O)N3CCCCC3)cc2)c1-c1ccccc1	390	0.0251 µM	0.0251 µM	-8.4	
